Assay results published in patent publication US6914045B2, “Glycopeptide antibiotics” (Wyeth Holdings Corporation, priority 2001, dated 2005).
Values after ≈ are worked out from the molar mass of the structure shown.

Experiments:
Streptococcus sp. = experiment: in vitro antibacterial evaluation, MIC by broth dilution; assay type: cell-based; conditions: broth dilution, 18 hours at 35° C.
Procedure, shortened: (§1)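 Inoculum 5×10^5 CFU/mL; concentrations 64 to 0.06 μg/mL; MIC defined as lowest inhibitory level. Conducted by broth dilution under NCCLS guidelines.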

Staphylococcus sp. = experiment: as above; assay type: cell-based; conditions: broth dilution, 18 hours at 35° C.
Procedure, shortened: as §1

Escherichia coli = experiment: as above; assay type: cell-based; conditions: 18 hours at 35° C.
Procedure, shortened: as §1

Enterococcus sp. = experiment: as above; assay type: cell-based; conditions: broth dilution, 18 hours at 35° C.
Procedure, shortened: as §1

[1] = system: Staphylococcus aureus-SMITH (GC 4543); experiment: acute lethal infection in mice; assay type: in vivo; conditions: acute lethal infection, female CD-1 mice, intraperitoneal challenge, intravenous 30 min. after infection, 7 day survival
Procedure, shortened: (§2)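 Intraperitoneal challenge of female CD-1 mice with a bacterial dose lethal to untreated animals within 24-48 hr; single iv treatment 30 min later, 5 mice per dose level. Survival is scored at day 7 and pooled from three experiments to give the median effective dose.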

[2] = system: Enterococcus faecalis (GC 6189); experiment: acute lethal infection in mice; assay type: in vivo; conditions: female CD-1 mice, intraperitoneal challenge, intravenous 30 min. after infection, 7 day survival
Procedure, shortened: as §2

SMILES: Cc1ccc(CC2OCC3OC(OC4C(CO)OC(Oc5ccc(CC6NC(=O)C(C(C)c7ccccc7)NC(=O)CNC(=O)C(CO)NC(=O)C(C(O)C7CNC(=N)N7C7OC(CO)C(O)C(O)C7O)NC(=O)C(C(O)C7CNC(=N)N7)NC6=O)cc5)C(O)C4O)C(O)C(O)C3O2)cc1 (stereo not drawn) [Example 119, Cyclo[glycyl-β-methylphenylalanyl-O-[4-O-[4,6-O-(4-methylphenethylidene)hexopyranosyl]-hexopyranosyl]tyrosyl-3-(2-iminoimidazolidin-4-yl)seryl-3-(3-hexopyranosyl-2-iminoimidazolidin-4-yl)serylseryl]]
- MIC Streptococcus agalactiae (GC 4564) (Streptococcus sp.; Streptococcus agalactiae (GC 4564)): <0.5 µg/mL
- MIC Streptococcus pneumoniae (ATCC 6301) (Streptococcus sp.; Streptococcus pneumoniae (ATCC 6301)): <0.5 µg/mL
- MIC Streptococcus pneumoniae (GC 1894) (Streptococcus sp.; Streptococcus pneumoniae (GC 1894)): <0.5 µg/mL
- MIC Streptococcus pneumoniae (GC 4565) (Streptococcus sp.; Streptococcus pneumoniae (GC 4565)): 1 µg/mL (≈ 0.708 µM)
- MIC Streptococcus pyogenes (GC 4563) (Streptococcus sp.; Streptococcus pyogenes (GC 4563)): <0.5 µg/mL
- MIC Streptococcus pneumoniae (ATCC 6301) (Streptococcus sp.; strain ATCC 6301): <0.5 µg/mL
- MIC Streptococcus pneumoniae (GC 1894) (Streptococcus sp.; strain GC 1894): <0.5 µg/mL
- MIC Streptococcus pyogenes (GC 4563) (Streptococcus sp.; strain GC 4563): <0.5 µg/mL
- MIC Streptococcus agalactiae (GC 4564) (Streptococcus sp.; strain GC 4564): <0.5 µg/mL
- MIC Streptococcus pneumoniae (GC 4565) (Streptococcus sp.; strain GC 4565): 1 µg/mL (≈ 0.708 µM)
- MIC Coagulase Negative Staphylococcus (GC 4547) (Staphylococcus sp.): 1 µg/mL (≈ 0.708 µM)
- MIC Coagulase Negative Staphylococcus (GC 4548) (Staphylococcus sp.): 1 µg/mL (≈ 0.708 µM)
- MIC Coagulase Negative Staphylococcus (GC 4549) (Staphylococcus sp.): 1 µg/mL (≈ 0.708 µM)
- MIC Coagulase Negative Staphylococcus (GC 4551) (Staphylococcus sp.): 1 µg/mL (≈ 0.708 µM)
- MIC Coagulase Negative Staphylococcus (GC 6257) (Staphylococcus sp.): <0.5 µg/mL
- MIC Staphylococcus aureus (ATCC 29213) (Staphylococcus sp.): 1 µg/mL (≈ 0.708 µM)
- MIC Staphylococcus aureus (GC 1131) (Staphylococcus sp.): 1 µg/mL (≈ 0.708 µM)
- MIC Staphylococcus aureus (GC 3051) (Staphylococcus sp.): 1 µg/mL (≈ 0.708 µM)
- MIC Staphylococcus aureus (GC 3053) (Staphylococcus sp.): 2 µg/mL (≈ 1.42 µM)
- MIC Staphylococcus aureus (GC 4541) (Staphylococcus sp.): 1 µg/mL (≈ 0.708 µM)
- MIC Staphylococcus aureus (GC 4542) (Staphylococcus sp.): 1 µg/mL (≈ 0.708 µM)
- MIC Staphylococcus aureus (GC 4544) (Staphylococcus sp.): 1 µg/mL (≈ 0.708 µM)
- MIC Staphylococcus aureus (GC 4545) (Staphylococcus sp.): 1 µg/mL (≈ 0.708 µM)
- MIC Staphylococcus aureus-SMITH (GC 4543) (Staphylococcus sp.): 1 µg/mL (≈ 0.708 µM)
- MIC Staphylococcus haemolyticus (GC 4546) (Staphylococcus sp.): 1 µg/mL (≈ 0.708 µM)
- MIC Staphylococcus aureus (GC 1131) (Staphylococcus sp.; inoculum 5×10^5 CFU/mL, strain GC 1131): 1 µg/mL (≈ 0.708 µM)
- MIC Staphylococcus aureus (ATCC 29213) (Staphylococcus sp.; strain ATCC 29213): 1 µg/mL (≈ 0.708 µM)
- MIC Staphylococcus aureus (GC 3051) (Staphylococcus sp.; strain GC 3051): 1 µg/mL (≈ 0.708 µM)
- MIC Staphylococcus aureus (GC 3053) (Staphylococcus sp.; strain GC 3053): 2 µg/mL (≈ 1.42 µM)
- MIC Staphylococcus aureus (GC 4541) (Staphylococcus sp.; strain GC 4541): 1 µg/mL (≈ 0.708 µM)
- MIC Staphylococcus aureus (GC 4542) (Staphylococcus sp.; strain GC 4542): 1 µg/mL (≈ 0.708 µM)
- MIC Staphylococcus aureus (GC 4544) (Staphylococcus sp.; strain GC 4544): 1 µg/mL (≈ 0.708 µM)
- MIC Staphylococcus aureus (GC 4545) (Staphylococcus sp.; strain GC 4545): 1 µg/mL (≈ 0.708 µM)
- MIC Staphylococcus haemolyticus (GC 4546) (Staphylococcus sp.; strain GC 4546): 1 µg/mL (≈ 0.708 µM)
- MIC Coagulase Negative Staphylococcus (GC 4547) (Staphylococcus sp.; strain GC 4547): 1 µg/mL (≈ 0.708 µM)
- MIC Coagulase Negative Staphylococcus (GC 4548) (Staphylococcus sp.; strain GC 4548): 1 µg/mL (≈ 0.708 µM)
- MIC Coagulase Negative Staphylococcus (GC 4549) (Staphylococcus sp.; strain GC 4549): 1 µg/mL (≈ 0.708 µM)
- MIC Coagulase Negative Staphylococcus (GC 4551) (Staphylococcus sp.; strain GC 4551): 1 µg/mL (≈ 0.708 µM)
- MIC Coagulase Negative Staphylococcus (GC 6257) (Staphylococcus sp.; strain GC 6257): <0.5 µg/mL
- MIC Staphylococcus aureus-SMITH (GC 4543) (Staphylococcus sp.; strain SMITH GC 4543): 1 µg/mL (≈ 0.708 µM)
- MIC Escherichia coli (ATCC 25922) (Escherichia coli; strain ATCC 25922): 32 µg/mL (≈ 22.7 µM)
- MIC Escherichia coli (GC 4559) (Escherichia coli; strain GC 4559): 32 µg/mL (≈ 22.7 µM)
- MIC Escherichia coli (GC 4560) (Escherichia coli; strain GC 4560): 1 µg/mL (≈ 0.708 µM)
- MIC Enterococcus avium (GC 4558) (Enterococcus sp.; Enterococcus avium (GC 4558)): 4 µg/mL (≈ 2.83 µM)
- MIC Enterococcus faecalis (ATCC 29212) (Enterococcus sp.; Enterococcus faecalis (ATCC 29212)): 2 µg/mL (≈ 1.42 µM)
- MIC Enterococcus faecalis (GC 2242) (Enterococcus sp.; Enterococcus faecalis (GC 2242)): 2 µg/mL (≈ 1.42 µM)
- MIC Enterococcus faecalis (GC 2691) (Enterococcus sp.; Enterococcus faecalis (GC 2691)): 2 µg/mL (≈ 1.42 µM)
- MIC Enterococcus faecalis (GC 3059) (Enterococcus sp.; Enterococcus faecalis (GC 3059)): >64 µg/mL
- MIC Enterococcus faecalis (GC 4552) (Enterococcus sp.; Enterococcus faecalis (GC 4552)): 2 µg/mL (≈ 1.42 µM)
- MIC Enterococcus faecalis (GC 4553) (Enterococcus sp.; Enterococcus faecalis (GC 4553)): 4 µg/mL (≈ 2.83 µM)
- MIC Enterococcus faecalis (GC 4554) (Enterococcus sp.; Enterococcus faecalis (GC 4554)): 2 µg/mL (≈ 1.42 µM)
- MIC Enterococcus faecalis (GC 6189) (Enterococcus sp.; Enterococcus faecalis (GC 6189)): 2 µg/mL (≈ 1.42 µM)
- MIC Enterococcus faecium (GC 2243) (Enterococcus sp.; Enterococcus faecium (GC 2243)): 4 µg/mL (≈ 2.83 µM)
- MIC Enterococcus faecium (GC 4556) (Enterococcus sp.; Enterococcus faecium (GC 4556)): 2 µg/mL (≈ 1.42 µM)
- MIC Enterococcus faecium (GC 4557) (Enterococcus sp.; Enterococcus faecium (GC 4557)): 1 µg/mL (≈ 0.708 µM)
- MIC Enterococcus faecalis (ATCC 29212) (Enterococcus sp.; strain ATCC 29212): 2 µg/mL (≈ 1.42 µM)
- MIC Enterococcus faecalis (GC 2242) (Enterococcus sp.; strain GC 2242): 2 µg/mL (≈ 1.42 µM)
- MIC Enterococcus faecium (GC 2243) (Enterococcus sp.; strain GC 2243): 4 µg/mL (≈ 2.83 µM)
- MIC Enterococcus faecalis (GC 2691) (Enterococcus sp.; strain GC 2691): 2 µg/mL (≈ 1.42 µM)
- MIC Enterococcus faecalis (GC 3059) (Enterococcus sp.; strain GC 3059): >64 µg/mL
- MIC Enterococcus faecalis (GC 4552) (Enterococcus sp.; strain GC 4552): 2 µg/mL (≈ 1.42 µM)
- MIC Enterococcus faecalis (GC 4553) (Enterococcus sp.; strain GC 4553): 4 µg/mL (≈ 2.83 µM)
- MIC Enterococcus faecalis (GC 4554) (Enterococcus sp.; strain GC 4554): 2 µg/mL (≈ 1.42 µM)
- MIC Enterococcus faecium (GC 4556) (Enterococcus sp.; strain GC 4556): 2 µg/mL (≈ 1.42 µM)
- MIC Enterococcus faecium (GC 4557) (Enterococcus sp.; strain GC 4557): 1 µg/mL (≈ 0.708 µM)
- MIC Enterococcus avium (GC 4558) (Enterococcus sp.; strain GC 4558): 4 µg/mL (≈ 2.83 µM)
- MIC Enterococcus faecalis (GC 6189) (Enterococcus sp.; strain GC 6189): 2 µg/mL (≈ 1.42 µM)
- median effective dose (ED50), Staphylococcus aureus-SMITH (GC 4543) [1]: 0.19 mg/kg
- median effective dose (ED50), Enterococcus faecalis (GC 6189) [2]: 0.41 mg/kg
